Experimental data as given in US7763620B2, “Piperazinone compounds as anti-tumor and anti-cancer agents and methods of treatment” (Yale University, priority 2001, dated 2010).

Legend:
[1] = tested on: A-549 human lung cancer cells; assay: Antitumor activity in the nude mouse tumor xenograft model (A-549); assay type: in vivo; settings: A-549 s.c. xenograft in nude mice; for inhibition of A-549 tumor growth: 28-34 days, versus vehicle; for average tumor size: over a period of 28-34 days, vehicle about 600 mm^3, s.c. osmotic mini-pumps
Text: Antitumor activity in the nude mouse tumor xenograft model—Nude mice (Charles River, Wilmington, Mass.) were maintained in accordance with the Institutional Animal Care and Use Committee (IACUC) procedures and guidelines. A-549 cells were harvested, resuspended in PBS and injected s.c. into the right and left flank (7×10^6 cells per flank) of 8 week old female nude mice as reported previously (1, 2). When tumors reached 50 to 100 mm^3, animals either were implanted s.c. with 2-week osmotic mini-pumps (Alzet 2002, Alzet, Palo Alto, Calif.). The mini-pumps were implanted on the right flank and the tumor cells on the left flank. Control animals received a saline vehicle whereas treated animals were injected with either vehicle, GGTI-2154, GGTI-2418, GGTI-2432 and GGTI-2430. The tumor volumes were determined by measuring the length (l) and the width (w) and calculating the volume (V=lw^2/2) as described previously (30, 31).

[2] = tested on: Rap1A processing by GGTase-I; assay: Inhibition of Rap1A processing (geranylgeranylation) in oncogenic H-Ras-transformed NIH 3T3 cells, immunoblot; assay type: cell-based; settings: read-out: IC50, block of Rap1A processing by GGTase-I
Description: (§1) The in vitro inhibition assays of GGTase-1 and FTase were carried out by measuring the [^3H]GGPP and [^3H]FPP incorporated into H-Ras-CVLL and H-Ras-CVLS, respectively, as previously described.^27 The in vivo inhibition of geranylgeranylation and farnesylation was determined based on the level of inhibition of Rap1A and H-Ras processing, respectively.^10 Briefly, oncogenic H-Ras-transformed NIH 3T3 cells were treated with various concentrations of inhibitors, and the cell lysates were separated on 12.5% SDS-PAGE. The separated proteins were transferred to nitrocellulose and immunoblotted using an anti-Ras antibody (Y13-258) or an anti-Rap1A antibody (SC-65). Antibody reactions were visualized using either peroxidase-conjugated goat anti-rat IgG or goat anti-rabbit IgG and an enhanced chemiluminescence detection system. The results of those assays appear in Table 1 (FIG. 9), Table 2 (FIG. 10) and Table 3 (FIG. 11).

GGTase-I = GGTase-I (Homo sapiens, UniProt P49354+P53609); assay: In vitro GGTase-I inhibition ([3H]GGPP incorporation into H-Ras-CVLL); assay type: biochemical; settings: Table 3, FIG. 11
Description: as §1

Row | Compound | inhibition of A-549 tumor growth [1] [%] | average tumor size [1] [mm^3] | IC50 [2] [nM] | inhibition of GGTase-I (activity in words) (GGTase-I)
1 | Cc1ccccc1-c1cc(NCc2cnc[nH]2)ccc1C(=O)N[C@@H](CC(C)C)C(=O)O [GGTI-2154, reference compound] | 66 | 250 | – | –
2 | COC(=O)[C@H](CC(C)C)NC(=O)N1CCN(Cc2nc[nH]c2C)C(=O)[C@@H]1Cc1ccccc1 [GGTI-2417] | – | – | 300 | –
3 | Cc1nc[nH]c1CN1CCN(C(=O)N[C@@H](CC(C)C)C(=O)O)[C@@H](Cc2ccccc2)C1=O [GGTI-2418] | 57 | 280 | – | exceptional activity
